Read-outs that look alike come from different tables or passages of the source.
What was measured:
[1] = Cytostatic assay (MTS/PMS) in Huh 5-2 cells; assay type: cell-based; details: human, three days
Description: (§1) Cells were seeded at a density of 5×10^3 or 7.2×10^3 cells per well in a 96-well plate in complete DMEM in serial dilutions of the test compounds for Huh 5-2 and Huh 7.5.1 cells, respectively. After three days of incubation, cell viability was determined by MTS/PMS method (Promega).

[2] = tested on: HCV replicons I389luc-ubi-neo/NS3-3′/5.1 (Huh 5-2), genotype 1b subgenomic replicon; assay: Antiviral assay in HCV replicon cells (Huh 5-2, firefly luciferase); assay type: cell-based, hepatitis C virus (HCV); details: for EC50: Hepatitis C virus, read-out: EC50 (50% effective concentration), HCV replicon replication, Huh 5-2 subgenomic replicon (genotype 1b), firefly luciferase, mean ± SD, four independent experiments; for fold-change of EC50 with Hemin (5 µM) (value between brackets): Huh 5-2 replicon, potentiation by Hemin 5 µM
Description: Cells carrying HCV replicons I389luc-ubi-neo/NS3-3′/5.1 (Huh 5-2) were kindly provided by Prof. R. Bartenschlager (University of Heidelberg, Germany). Cells were cultured in Dulbecco’s modified Eagle’s Medium (DMEM, Gibco, Merelbeke, Belgium) supplemented with 10% heat-inactivated fetal bovine serum (Integro, Zaandam, The Netherlands), 1× non-essential amino acids, 100 IU/mL penicillin (Gibco), 100 µg/mL streptomycin (Gibco), and 250 µg/mL G418. Cell cultures were maintained at 37°C with 5% CO2.
(§2) The antiviral assay was performed as described, [22]. Briefly, cells were seeded at a density of 5×10^3 cells per well in 96-well cell culture plates in DMEM containing 250 µg/mL G418 at 37°C (5% CO2). After 24 hours of incubation, medium was replaced with fresh DMEM (without G418) and serial dilutions of the test compounds. Replicon RNA levels were determined by a quantitative reverse transcription polymerase chain reaction (qRT-PCR) or quantified by measuring the firefly luciferase activity in 96-well cell culture plates (Safire, Tecan, Austria).

[3] = Cytostatic assay (MTS/PMS) in Huh 7.5.1 cells; assay type: cell-based; details: human
Description: as §1

[4] = tested on: infectious HCV JFH-1/CS-N6 in Huh 7.5.1 cells; assay: microbe, parasite or virus in culture; assay type: cell-based, hepatitis C virus (HCV); details: for SI: HCVcc system, CC50/EC50; for EC50: 3 days, qRT-PCR, mean ± SD, four independent experiments
Description: The highly infectious HCV JFH-1/CS-N6 described by Delgrange et al was used for the antiviral assays. A total of 7.2×10^3 Huh 7.5.1 cells per well of a 96-well cell culture plate were incubated with the virus at specific infectivity of about 400 (400 HCV RNA copies per foci-forming unit) and at the same time with serial dilutions of compounds. Following 3 days of incubation, medium was removed and cells were washed once and lysed to extract the intracellular RNA with the RNeasy kit (Qiagen). HCV RNA was quantified by means of qRT-PCR [25].
A qRT-PCR mixture contained: cellular RNA extract, HCV JFH-1 forward primer SF-JFH86 [5′-[…]-3′], reverse primer SR-JFH194 [5′-[…]-3′], and probe [5′-FAM-[…]-TAMRA-3′], was performed at 50°C for 30 min, subsequent 15 min at 95°C and PCR amplification of 40 cycles of denaturation at 94°C for 20 s and annealing and extension at 60°C for 1 min in an ABI 7500 Taqman (Live Technologies).

[5] = tested on: HCV replicon in Huh 5-2 cells; assay: Drug combination studies (checker-board, Prichard and Shipman) in the HCV replicon system; assay type: cell-based, hepatitis C virus (HCV); details: Figure S2
Description: as §2
The effects of drug combinations were evaluated in a checker-board format using the method of Prichard and Shipman. The theoretical additive effect was calculated from the dose–response curves of individual compounds by the equation Z = X+Y(1−X), where X represents the inhibition produced by first compound alone and Y the inhibition by the second compound alone. Z represents the effect produced by the combination of the first with the second compound. The theoretical additive surface is subtracted from the actual experimental surface, resulting in a horizontal surface that equals the zero plane when the combination is additive. A surface that lies above the zero plane indicates a synergistic effect of the combination, and a surface below the zero plane indicates an antagonism. […]

Huh 7.5.1 cells = assay: Cytostatic assay (MTS/PMS) in Huh 7.5.1 cells; assay type: cell-based
Description: as §1

[6] = Huh 7.5.1 hepatoma cells, three days, MTS/PMS
[7] = Hepatitis C virus, Huh-7.5.1, 72 h, read-out: EC50 (50% effective concentration), replication of HCVcc, infectious HCV JFH-1 in Huh 7.5.1
[8] = read-out: EC50 (50% effective concentration), replication of HCVcc, infectious HCV JFH-1 in Huh 7.5.1

| Compound | CC50 at 3 days [1] | EC50 [2] | fold-change of EC50 with Hemin (5 µM) (value between brackets) [2] | CC50 at 3 days [3, 6] | SI [4] | EC50 [4, 7] | also measured |
| --- | --- | --- | --- | --- | --- | --- | --- |
| C[C@@H]1CCC2[C@@H](C)[C@H](OCc3ccc(CO)cc3)OC3O[C@@]4(C)CCC1[C@]32OO4 (some centres unmarked) [AJ-001] | > 133 µM | 8.8 ± 2.7 µM | 2 fold | > 133 µM | > 5 | 26 ± 5 µM | – |
| C[C@@H]1CCC2[C@@H](C)[C@H](OCc3ccc(C=O)cc3)OC3O[C@@]4(C)CCC1[C@]32OO4 (some centres unmarked) [AJ-002] | > 133 µM | 30 ± 8 µM | 15 fold | > 133 µM | > 8 | 15 ± 2 µM | – |
| CC1CCC2C(C)C(OCc3ccc(COC4OC5OC6(C)CCC7C(C)CCC(C4C)C57OO6)cc3)OC3OC4(C)CCC1C32OO4 (centres unmarked) [AJ-004] | > 133 µM | 3.2 ± 2.4 µM | – | > 133 µM | > 8 | 16 ± 4 µM | fold more efficient in inhibiting HCV replicon replication compared to the monomer AJ-001 ([2]; subgenomic replicon system): ~3 fold; fold more potent than the monomer AJ-002 ([2]; subgenomic replicon system): ~10 fold |
| C[C@@H]1CC[C@H]2[C@@H](C)C(=O)O[C@@H]3O[C@@]4(C)CC[C@@H]1[C@]32OO4 [ART, Artemisinin, reference compound] | > 400 µM | 75 ± 7 µM | 8 fold | > 400 µM | > 2 | 167 ± 38 µM | effect of the combination with TEMPO [5]: marginaly antagonistic effect; host cell proliferation and cell viability at the highest concentration tested (Huh 7.5.1 cells; 400 µM, HCVcc system cells): not affected; potentiation of antiviral activity by Hemin in the HCVcc system ([4]; Hemin at 5 µM): 2 fold |
| CO[C@H]1O[C@@H]2O[C@@]3(C)CC[C@H]4[C@H](C)CC[C@@H]([C@H]1C)[C@@]24OO3 [Artemether] | – | – | – | < 6 µM | – | – | – |
| C[C@H]1[C@H](OC(=O)CCC(=O)O)O[C@@H]2O[C@@]3(C)CC[C@H]4[C@H](C)CC[C@@H]1[C@@]24OO3 [Artesunate] | – | – | – | < 6 µM | – | – | – |
| C[C@H]1[C@@H](O)O[C@@H]2O[C@@]3(C)CC[C@H]4[C@H](C)CC[C@@H]1[C@@]24OO3 [Dihydroartemisinin] | – | – | – | < 6 µM | – | – | – |
| CC(=O)N[C@@H](CS)C(=O)O [L-NAC, L-N-acetylcysteine, reference compound] | – | – | – | – | – | – | HCV RNA replication with L-NAC alone ([4]; L-NAC alone at the concentration tested, printed as HCVcc replication): 98 % of UTC |
| CC1(C)CCCC(C)(C)N1[O] [TEMPO, 2,2,6,6-tetramethyl-1-piperidinyloxy, reference compound] | – | – | – | – | – | – | effect of TEMPO alone on the replication of HCV ([2]; HCV replicon system, concentrations up to 200 µM): no effect |
| CC(=O)OC1OC2OC3(C)CCC4C(C)CCC(C1C)C24OO3 (centres unmarked) [TVN2] | 36 ± 7 µM | 25 ± 13 µM | +4 fold | – | – | > 70 µM | – |
| C=COC1OC2OC3(C)CCC4C(C)CCC(C1C)C24OO3 (centres unmarked) [TVN4] | 123 ± 14 µM | 36 ± 16 µM | +2 fold | > 133 µM | > 2 | 59 ± 6 µM | effect of the combination with TEMPO [5]: marginaly antagonistic effect; EC50 [4, 8]: 52 ± 6 µM |
| CC1CCC2C(C)C(OC(=O)c3ccccc3)OC3OC4(C)CCC1C32OO4 (centres unmarked) [TVN6] | 40 ± 20 µM | 3.6 ± 2.3 µM | – | – | – | > 70 µM | – |
| CCC[C@H](NC(=O)[C@@H]1[C@H]2CCC[C@H]2CN1C(=O)[C@@H](NC(=O)[C@@H](NC(=O)c1cnccn1)C1CCCCC1)C(C)(C)C)C(=O)C(=O)NC1CC1 [VX-950, reference compound] | – | – | – | – | > 50 | 0.2 ± 0.1 µM | CC50 at 3 days [3]: > 10 µM |
| Hemin [reference compound] | – | – | – | – | – | – | concentration not toxic to Huh 7.5.1 (Huh 7.5.1 cells; Hemin alone): > 50 µM; EC50 [4, 8]: 8 ± 0.6 µM |
